Consider one compound from article PMC5120204, “Identification of an orally active small-molecule PTHR1 agonist for the treatment of hypoparathyroidism” (Nature Communications, 2016).

SMILES strings stand for the structures. Like-named read-outs stand apart in the source and are kept apart here.

Series [1] can be described thus: Pharmacokinetics in OVX rats. It counts as in vivo. As to conditions: female, Crl:CD(SD), rat, plasma, iv.
For series [2], the target named is T1, hPTHR1–hPTHR2 chimeric receptors (C1, C2, C3) and mutant hPTHR1s (M24, M25, M26, M414V, P415L, L416V) (Homo sapiens, UniProt Q03431, P415L).
T1 construct: expressed in transfected cells; host or cells: COS-7 (transient)
T1 sequence (Q03431 27-593 E93Y/D94P/K95Y/E96D/A97V/T99D/G100Y/S101A/P415L): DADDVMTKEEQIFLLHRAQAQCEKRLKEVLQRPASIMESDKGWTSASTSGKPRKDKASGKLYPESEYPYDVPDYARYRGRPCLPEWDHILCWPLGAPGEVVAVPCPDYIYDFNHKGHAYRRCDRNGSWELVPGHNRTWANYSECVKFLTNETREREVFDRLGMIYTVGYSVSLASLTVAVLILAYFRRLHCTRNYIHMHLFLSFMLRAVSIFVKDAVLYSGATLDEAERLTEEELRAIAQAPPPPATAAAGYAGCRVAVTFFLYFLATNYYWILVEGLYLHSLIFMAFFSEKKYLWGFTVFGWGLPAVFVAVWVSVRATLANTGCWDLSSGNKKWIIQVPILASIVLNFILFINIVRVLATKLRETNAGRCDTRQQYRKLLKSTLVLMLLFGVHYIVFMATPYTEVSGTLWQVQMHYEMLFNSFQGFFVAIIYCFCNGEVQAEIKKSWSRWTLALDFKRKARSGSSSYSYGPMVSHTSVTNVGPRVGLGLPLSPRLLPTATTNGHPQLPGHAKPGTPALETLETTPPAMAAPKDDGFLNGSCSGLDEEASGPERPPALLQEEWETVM
It counts as cell-based. As to conditions: single replacement P415L. On the procedure:
COS-7 cells (ATCC) were seeded into a 96-well flat-bottomed plate (1.4 × 10^4 cells per 100 μl per well) and incubated overnight. The next day, the COS-7 cells were transfected by adding 10 μl of a mixture of hPTHR1, hPTHR2 or mutant hPTHR1 plasmid, rat PTHR1 or rat PTHR2 plasmid, or empty vector (0.1 μg per well), FuGENE HD Transfection Reagent (0.4 μl per well, Promega), and Opti-MEM I Reduced Serum Medium (10 μl per well, Life Technologies) to each well. […] The plate was placed in a 37 °C constant-temperature water bath for 20 min to allow the reaction to proceed. After incubation, the liquid in the wells was discarded, the wells were washed with the assay medium (100 μl per well), and the plate was frozen on dry ice. Next, 40 μl of 50 mmol l^−1 HCl was added to each well, and the plate was stored in a freezer set at ≤−20 °C. The cAMP concentrations were measured by using a cAMP EIA kit (GE Healthcare). EC50 values were determined from three independent experiments in duplicate by a non-linear regression Emax model (JMP ver.9.0.2, SAS Institute). The geometric mean of the EC50 values obtained in three experiments in duplicate was calculated using Microsoft Office Excel 2007. […]

The nature of series [3]: Pharmacokinetics in OVX rats. It counts as in vivo. As to conditions: female, Crl:CD(SD), rat, plasma. The procedure:
OVX was carried out in 32-week-old female Crl:CD (SD) rats (Charles River Laboratories). Twelve weeks after surgery, lumbar vertebral BMD (L3–L5) was measured in vivo by dual-energy X-ray absorptiometry (DXA) using a DCS-600EX-IIIR bone densitometer (Hitachi Aloka Medical), and the rats were divided into five groups, each with a similar mean value of BMD and body weight. Sample sizes were determined based on previous experiments with hPTHs and a published study with ibandronate and eldecalcitriol in our laboratories[42] (n=7–10). Then, OVX rats were treated once daily intravenously (vehicle or PCO371 at 3 or 10 mg kg^−1) or orally (vehicle or PCO371 at 30 mg kg^−1) or subcutaneously [vehicle or hPTH(1–34) at 0.9 nmol kg^−1] for 12 weeks. Ten to twelve OVX rats were assigned to each dose group. Nine rats were assigned to the sham-operated control group and were treated with vehicle for PCO371. Ten per cent DMSO (Wako Pure Chemical Industries)/10% Kolliphor EL (Sigma-Aldrich) in 10% hydroxypropyl-β-cyclodextrin (HPCD; Nihon Shokuhin Kako)/0.752% glycine (Wako Pure Chemical Industries) buffer was used as vehicle for PCO371, and phosphate-citrate buffer (pH 6.0) was used as vehicle for hPTH(1–34). To label bone-forming surfaces, tetracycline ([…], Nippon Zenyaku Kogyo) was subcutaneously injected on Day 78 and calcein (8 mg kg^−1, Dōjindo Laboratories) was subcutaneously injected on day 83. Under isoflurane anaesthesia, jugular vein blood was collected immediately before and at 1, 2, 6, 10 and 24 h after administration on day 82 to measure plasma concentration of PCO371 or on day 84 to measure serum Ca levels (o-CPC method, Wako Pure Chemical Industries). Urine was collected for 24 h from metabolic cages on days 84–85 to measure urinary collagen type 1 cross-linked C-telopeptide (CTX) by using the RatLaps ELISA System (Immunodiagnostic Systems). Under isoflurane anaesthesia, blood was collected on day 85 from the abdominal aorta to measure serum osteocalcin level by using the Rat Osteocalcin ELISA System (GE Healthcare). The lumbar spine and bilateral femurs were excised after 12 weeks of treatment. The first lumbar vertebra (L1), 3rd to 5th lumbar vertebrae (L3–L5), the right femur, and the right tibia were preserved in 70% ethanol to measure bone histomorphometry and BMD (DCS-600EX; Hitachi Aloka Medical). Measurement of bone histomorphometry was performed by the Ito Bone Histomorphometry Institute (Niigata, Japan). The second lumbar vertebra (L2) was wrapped in saline-soaked gauze and stored at −80 °C until measurement. Ultimate compressive strength (N) of the L2 vertebra was measured by using a mechanical testing machine (TK-252C; Muromachi Kikai).

The AUC is the area under the concentration-time curve, a measure of exposure. A high value points to high exposure. As a reminder, the half-life is the time needed for the level to fall by half in the phase considered. A low value points to fast loss. Usually Cmax stands for the peak of the concentration-time curve. What is called Tmax is the time from dosing to the highest level. Consider `Cc1cc(N2C(=O)NC(=O)C2(C)C)cc(C)c1CCS(=O)(=O)N1CCC2(CC1)N=C(c1ccc(OC(F)(F)F)cc1)NC2=O` [PCO371, 1-{3,5-dimethyl-4-[2-({4-oxo-2-[4-(trifluoromethoxy)phenyl]-1,3,8-triazaspiro[4.5]dec-1-en-8-yl}sulfonyl)ethyl]phenyl}-5,5-dimethylimidazolidine-2,4-dione], for which the concentration at 2 min in series [1] (i.v. 3 mg kg-1, read-out: C2min (concentration at 2 min after administration)) amounted to 17500 ng/mL; in series [1] (i.v. 10 mg kg-1, read-out: C2min (concentration at 2 min after administration)) it was 50100 ng/mL. Also, in series [2], the cAMP production result is listed as “dramatic reduction”. Moreover, the AUC in series [3] (iv, i.v. 3 mg kg-1) is 15500 ng·h/mL; in series [3] (iv, i.v. 10 mg kg-1) it was 48700 ng·h/mL; in series [3] (po, p.o. 30 mg kg-1) it was 29500 ng·h/mL. Besides, the half-life in series [3] (iv, i.v. 3 mg kg-1) is 2.4 ± 0.2 h; in series [3] (iv, i.v. 10 mg kg-1) it was 2.2 ± 0.2 h; in series [3] (po, p.o. 30 mg kg-1), 2.5 ± 0.3 h. Moreover, the Cmax in series [3] (po, p.o. 30 mg kg-1) turned out to be 95.6 ± 84.4 ng/mL. In addition, the Tmax in series [3] (po, p.o. 30 mg kg-1) was 1.4 ± 0.8 h.
